Results reported in publication PMC10893060, “Synthesis and Study of the Structure–Activity Relationship of Antiproliferative N-Substituted Isosteviol-Based 1,3-Aminoalcohols” (Pharmaceuticals, 2024).

Tests used:
Type in all cases: cell-based
NIH/3T3 = experiment: MTT assay on non-malignant fibroblasts; conditions: Mus musculus, NIH3T3, 72 h, no IC50 calculated when less than 50% inhibition at 10 μM
Description: (§1) The antiproliferative activities of the prepared diterpene analogues were studied using an MTT assay on a panel of human adherent cancer lines, including cells from cervical (HeLa), breast (MDA-MB-231, MCF-7), and ovary cancers (A2780), as given in Figure 1 and Table S1 in the Supplementary Materials. A non-malignant fibroblast cell line (NIH/3T3) was also utilised to obtain preliminary information on the cancer selectivity of the tested compounds. Based on the obtained activities, some conclusions could be drawn regarding the structure–activity relationships (SARs). Since neither the key intermediate benzyl ester of hydroxylaldehyde 4 nor the N-Boc protected aminoalcohols (6, 7, 11, 12) or even compound 8 with a free carboxylic function exerted remarkable antiproliferative effects (except for 12 against A2780 ovarian cancer cells), we could conclude that the simultaneous presence of the ester function and the basic secondary amino function were essential for the inhibition of cell growth. […] All active molecules inhibited considerably the proliferation of non-malignant cells, which meant that most currently presented agents were not optimal for further investigations of their anticancer properties.
(§2) The growth-inhibitory effects of the isosteviol-based 1,3-aminoalcohols were determined by a standard MTT (3-(4,5-dimethylthiazol-2-yl)-2,5-diphenyltetrazolium bromide) assay on a panel containing five cell lines, including Hela (cervical cancer), MDA-MB-231 and MCF-7 (breast cancers), and A2780 ovarian cancer cells. All cell lines were purchased from the European Collection of Cell Cultures (Salisbury, UK). The cells were maintained in a minimal essential medium supplemented with 10% foetal bovine serum, 1% non-essential amino acids, and 1% penicillin–streptomycin at 37 °C in a humidified atmosphere containing 5% CO2. All media and supplements were obtained from Lonza Group Ltd. (Basel, Switzerland). Cancer cells were seeded into 96-well plates (5000 cells/well); after overnight incubation, the test compound was added in two different concentrations (10 µM and 30 µM) and incubated for another 72 h under cell-culturing conditions. In the next step, 20 μL of 5 mg/mL of an MTT solution was added to each well and incubated for a further 4 h. The medium was removed and the precipitated formazan crystals were dissolved in DMSO after 60 min of shaking at 37 °C. As a final step, the absorbance was measured at 545 nm by using a microplate reader. Untreated cells were included as controls. […] Two independent experiments were performed with five wells for each condition. Calculations were performed using the GraphPad Prism 10.0 software (GraphPad Software Inc., San Diego, CA, USA).

A2780 = experiment: MTT antiproliferative assay, A2780; conditions: Homo sapiens, 72 h, no IC50 calculated when less than 50% inhibition at 10 μM
Description: as §1, §2

MCF-7 = experiment: MTT antiproliferative assay, MCF-7; conditions: Homo sapiens, MCF7, 72 h, no IC50 calculated when less than 50% inhibition at 10 μM
Description: as §1, §2

MDA-MB-231 = experiment: MTT antiproliferative assay, MDA-MB-231; conditions: Homo sapiens, 72 h, no IC50 calculated when less than 50% inhibition at 10 μM
Description: as §1, §2

HeLa = experiment: MTT antiproliferative assay, HeLa; conditions: Homo sapiens, 72 h, no IC50 calculated when less than 50% inhibition at 10 μM
Description: as §1, §2

SMILES	IC50 (NIH/3T3) [µM]	IC50 (A2780) [µM]	IC50 (MCF-7) [µM]	IC50 (MDA-MB-231) [µM]	IC50 (HeLa) [µM]
COC(=O)[C@]1(C)CCC[C@@]2(C)C3CC[C@@]4(C)C[C@]3(CC[C@H]12)[C@H](CNCCCn1ccnc1)[C@H]4O (stereo partly drawn) [Compound 28, (4R,4aS,6aS,7R,8R,9S,11bS)-Methyl 7-(((3-(1H-imidazol-1-yl)propyl)amino)methyl)-8-hydroxy-4,9,11b-trimethyltetradecahydro-6a,9-methanocyclohepta[a]naphthalene-4-carboxylate]	1.55	4.42	3.82	4.34	3.72
CC12CCC3C(CC[C@@H]4[C@](C)(C(=O)OCc5ccccc5)CCC[C@@]34C)(C1)[C@H](CNCCCn1ccnc1)[C@H]2O (stereo partly drawn) [Compound 20, (4R,4aS,7R,8R,11bS)-Benzyl 7-(((3-(1H-imidazol-1-yl)propyl)amino)methyl)-8-hydroxy-4,9,11b-trimethyltetradecahydro-6a,9-methanocyclohepta[a]naphthalene-4-carboxylate]	4.78	3.74	1.37	1.78	1.99
COC(=O)[C@]1(C)CCC[C@@]2(C)C3CC[C@@]4(C)C[C@]3(CC[C@H]12)[C@H](CN[C@H](C)c1ccc(F)cc1)[C@H]4O (stereo partly drawn) [Compound 23, (4R,4aS,6aS,7R,8R,9S,11bS)-Methyl 7-((((R)-1-(4-fluorophenyl)ethyl)amino)methyl)-8-hydroxy-4,9,11b-trimethyltetradecahydro-6a,9-methanocyclohepta[a]naphthalene-4-carboxylate]	1.79	4.24	3.16	5.08	4.16
C[C@]12CCC3[C@](CC[C@@H]4[C@](C)(C(=O)OCc5ccccc5)CCC[C@@]34C)(C1)[C@H](CNCc1ccc(F)cc1)[C@H]2O (stereo partly drawn) [Compound 5, (4R,4aS,6aS,7R,8R,9S,11bS)-Benzyl 7-(((4-fluorobenzyl)amino)methyl)-8-hydroxy-4,9,11b-trimethyltetradecahydro-6a,9-methanocyclohepta[a]naphthalene-4-carboxylate]	4.27	4.57	4.29	5.98	4.17
CC[C@H](NC[C@@H]1[C@@H](O)[C@@]2(C)CCC3[C@]1(CC[C@@H]1[C@](C)(C(=O)OCc4ccccc4)CCC[C@@]31C)C2)c1ccccc1 (stereo partly drawn) [Compound 17, (4R,4aS,6aS,7R,8R,9S,11bS)-Benzyl 8-hydroxy-4,9,11b-trimethyl-7-((((S)-1-phenylpropyl)amino)methyl)tetradecahydro-6a,9-methanocyclohepta[a]naphthalene-4-carboxylate]	1.95	3.78	4.74	4.04	4.45
CC(C)(C)OC(=O)N(Cc1ccc(F)cc1)C[C@@H]1[C@@H](O)[C@@]2(C)CCC3[C@]1(CC[C@@H]1[C@](C)(C(=O)O)CCC[C@@]31C)C2 (stereo partly drawn) [Compound 7, (4R,4aS,6aS,7R,8R,9S,11bS)-7-(((tert-butoxycarbonyl)(4-fluorobenzyl)amino)methyl)-8-hydroxy-4,9,11b-trimethyltetradecahydro-6a,9-methanocyclohepta[a]naphthalene-4-carboxylic Acid]	> 10	> 10	> 10	> 10	> 10
COC(=O)[C@]1(C)CCC[C@@]2(C)C3CC[C@@]4(C)C[C@]3(CC[C@H]12)[C@H](CN[C@H](C)c1ccc2ccccc2c1)[C@H]4O (stereo partly drawn) [Compound 27, (4R,4aS,6aS,7R,8R,9S,11bS)-Methyl 8-hydroxy-4,9,11b-trimethyl-7-((((R)-1-(naphthalen-2-yl)ethyl)amino)methyl)tetradecahydro-6a,9-methanocyclohepta[a]naphthalene-4-carboxylate]	5.03	3.26	2.43	4.11	3.4
CC[C@@H](NC[C@@H]1[C@@H](O)[C@@]2(C)CCC3[C@]1(CC[C@@H]1[C@](C)(C(=O)OC)CCC[C@@]31C)C2)c1ccccc1 (stereo partly drawn) [Compound 24, (4R,4aS,6aS,7R,8R,9S,11bS)-Methyl 8-hydroxy-4,9,11b-trimethyl-7-((((R)-1-phenylpropyl)amino)methyl)tetradecahydro-6a,9-methanocyclohepta[a]naphthalene-4-carboxylate]	4.44	4.52	2.37	4.99	3.04
C[C@]12CCC3[C@](CC[C@@H]4[C@](C)(C(=O)OCc5ccccc5)CCC[C@@]34C)(C1)[C@H](C=O)[C@H]2O (stereo partly drawn) [Compound 4, (4R,4aS,6aS,7S,8R,9S,11bS)-Benzyl 7-formyl-8-hydroxy-4,9,11b-trimethyltetradecahydro-6a,9-methanocyclohepta[a]naphthalene-4-carboxylate]	> 10	> 10	> 10	> 10	> 10
C[C@@H](NC[C@@H]1[C@@H](O)[C@@]2(C)CCC3[C@]1(CC[C@@H]1[C@](C)(C(=O)OCc4ccccc4)CCC[C@@]31C)C2)c1cccc2ccccc12 (stereo partly drawn) [Compound 18, (4R,4aS,6aS,7R,8R,9S,11bS)-Benzyl 8-hydroxy-4,9,11b-trimethyl-7-((((R)-1-(naphthalen-1-yl)ethyl)amino)methyl)tetradecahydro-6a,9-methanocyclohepta[a]naphthalene-4-carboxylate]	4.61	2.89	4.85	4.63	3.05
C[C@@H](NC[C@@H]1[C@@H](O)[C@@]2(C)CCC3[C@]1(CC[C@@H]1[C@](C)(C(=O)OCc4ccccc4)CCC[C@@]31C)C2)c1ccc(F)cc1 (stereo partly drawn) [Compound 15, (4R,4aS,6aS,7R,8R,9S,11bS)-Benzyl 7-((((R)-1-(4-fluorophenyl)ethyl)amino)methyl)-8-hydroxy-4,9,11b-trimethyltetradecahydro-6a,9-methanocyclohepta[a]naphthalene-4-carboxylate]	4.8	3.91	4.2	4.28	4.18
C=CC(=O)OCCC(=O)OCCCCOC(=O)[C@]1(C)CCC[C@@]2(C)C3CC[C@@]4(C)C[C@]3(CC[C@H]12)[C@H](CN(Cc1ccc(F)cc1)C(=O)OC(C)(C)C)[C@H]4O (stereo partly drawn) [Compound 12, (4R,4aS,6aS,7R,8R,9S,11bS)-4-((3-(Acryloyloxy)propanoyl)oxy)butyl 7-(((tert-butoxycarbonyl)(4-fluorobenzyl)amino)methyl)-8-hydroxy-4,9,11b-trimethyltetradecahydro-6a,9-methanocyclohepta[a]naphthalene-4-carboxylate]	> 10	4.78	> 10	> 10	> 10
CC(C)(C)OC(=O)N(Cc1ccc(F)cc1)C[C@@H]1[C@@H](O)[C@@]2(C)CCC3[C@]1(CC[C@@H]1[C@](C)(C(=O)OCc4ccccc4)CCC[C@@]31C)C2 (stereo partly drawn) [Compound 6, (4R,4aS,6aS,7R,8R,9S,11bS)-Benzyl 7-(((tert-butoxycarbonyl)(4-fluorobenzyl)amino)methyl)-8-hydroxy-4,9,11b-trimethyltetradecahydro-6a,9-methanocyclohepta[a]naphthalene-4-carboxylate]	> 10	> 10	> 10	> 10	> 10
